{"source": "patent US8609718B2", "about": "“Pharmaceutical composition used in treatment of hyperproliferative skin conditions and malignant melanomas comprising pachastrissamine as active ingredient” (Catholic University Industry Academy Cooperation Foundation, priority 2009, dated 2013)", "key": {"MEK": {"test_system": "MEK", "assay": "Western blotting of MEK activity (caMEK or N-Ras/H-Ras over-expression) in HaCaT", "assay_type": "cell-based, human", "conditions": "HaCaT with caMEK or N-Ras/H-Ras over-expression; FIGS. 3E, 3F", "method": "In the same manner, MEK(caMEK) continuously activated in the HaCaT cell line was over-expressed so as to activate ERK in a lower signaling pathway of MEK. The HaCaT cell line whose ERK was activated by MEK was treated with pachastrissamine and U0126 and PD98059 (ERK inhibitors). Then, western blotting was carried out using anti-pMEK, anti-MEK, anti-pEKR, anti-EKR, and anti-actin antibodies so as to carry out comparative analysis (see FIG. 3E).\nFurther, in the same manner, two DNAs of N-Ras and H-Ras, in a previous step of MEK/ERK signal transduction, were over-expressed through transfection while a HaCaT cell line was cultured. Then, after treatment with pachastrissamine and phytosphingosine, western blotting was carried out using anti-pMEK, and anti-MEK antibodies so as to carry out comparative analysis of MEK activity (see FIG. 3F)."}, "ERK": {"test_system": "ERK", "assay": "Western blotting of ERK activity (pERK) in HaCaT", "assay_type": "cell-based, human", "conditions": "pachastrissamine 10 μg/ml, U0126 20 nM, 30 minutes, FIG. 3C", "method": "A HaCaT cell line was cultured in the same manner as described in Example 1. […] The last group was a negative control group (−) and was added with nothing."}, "HaCaT cell line [1]": {"test_system": "HaCaT cell line", "assay": "TUNEL analysis of apoptosis", "assay_type": "cell-based, human", "conditions": "10 μg/ml, 24 hours, control: only a limited part, FIG. 2E", "method": "A HaCaT cell line was cultured in the same manner as described in Example 1. The cultured HaCaT cell line was plated onto a 60 mm plate at a concentration of 5×10^4 cells/well, and cultured in a CO2 incubator (37° C., 5%) for 24 hours. The cultured cells were treated with pachastrissamine at a concentration of 10 μg/ml, cultured in a CO2 incubator (37° C., 5%) for 24 hours, and subjected to TUNEL analysis.\nIn order to carry out TUNEL analysis based on ApopTagFluorescein In Situ Apoptosis Detection Kit (Millipore), cells were cultured in a cover slip, and washed with PBS (pH 7.4). In order to completely fix cells, the cells were reacted in a PBS solution including 4% paraformaldehyde at room temperature for 30 minutes. Then, in order to make the cells permeable, the cells were washed with a PBS solution, and reacted in a PBS solution including 0.1% Triton X-100 at room temperature for 5 minutes. For cell marking, the cells were washed with PBS twice, and then diluted TUNEL reaction mixture was added to the cover slip. After incubating in a humidified chamber at 37° C. for 60 minutes, the cover slip was washed. The washed cover slip was reacted with a DAPI solution at room temperature for about 10 minutes, washed with PBS, mounted on a slide, sufficiently dried in a dark place, and analyzed by a fluorescent microscope. […]"}, "FoxO3a": {"test_system": "FoxO3a", "assay": "Immunocytochemistry of intracellular FoxO3a distribution", "assay_type": "cell-based", "method": "In order to carry out Immunocytochemistry analysis, cells were transferred to chamber slides, and cultured in a CO2 incubator (37° C., 5%) for 24 hours. After about 12 hours of serum starvation, the cultured cell lines were treated with 10 μg/ml of pachastrissamine for 24 hours. The cell lines treated with pachastrissamine were fixed with 100% methanol, and washed with PBS. Then, in order to make the cells permeable, the cell lines were reacted in a 0.5% Triton X-100 and washed with a PBS solution. Then, by using a solution including 10% FBS and 0.1% gelatin, blocking was carried out at room temperature for 1 hour, and FoxO3a antibody was reacted at 4° C. for 12 hours. After the reaction, the cells were washed with PBS, reacted with a secondary antibody of Alex488 (invitrogen) at room temperature, and washed with PBS again. Finally, for nuclear stain, the cells were reacted with DAPI and washed with PBS. The slide was washed with PBS, attached with glass coverslip, and analyzed through a microscope.\nAfter the cells with or without over-expression of beta-catenin were treated with pachastrissamine, the distribution of intracellular FoxO3a protein was determined in the same manner as described in Example 4-3."}, "HaCaT cell line [2]": {"test_system": "HaCaT cell line", "assay": "MTT cell viability analysis (cytotoxicity), HaCaT", "assay_type": "cell-based, human", "conditions": "24 hours, FIG. 1", "method": "Pachastrissamine's cytotoxicity on a HaCaT cell line and a malignant melanoma cell line was researched through MTT cell viability analysis.\nFirst, each of a HaCaT cell line (German Cancer Research, obtained from prof. N. Fuseni, Germany), and two kinds of malignant melanoma cell lines, B16F10 (B16) and A375 were inoculated into a DMEM (Dulbecco's Modified Eagle's Medium) culture medium added with 10% FBS (Thermo Fisher Scientific Inc.), 100 unit/ml penicillin, and 100 μg/ml streptomycin, and then cultured in a CO2 incubator (Form a Scientific, Inc.) (37° C., 5%).\nThe cultured HaCaT, B16F10, and A375 cells were plated onto a 96-well plate at a concentration of 5×10^4 cells/well, and cultured in a CO2 incubator (37° C., 5%) for 24 hours. The cells in respective wells were treated with pachastrissamine and phytosphingosine at various concentrations of 0, 0.9, 1.8, 3.7, 7.5, 10 μg/ml, and cultured in a CO2 incubator (37° C., 5%) for 24 hours. After the culturing, in a state where the culture medium existed, each well was added with 5 mg/ml MTT reagent at a concentration of 20 μl/[…], and cultured in an incubator for 2 hours. After 2 hours, the culture medium was removed, and each well was added with 150 μl of DMSO (dimethyl sulfoxide). Then, a spectrophotometer was used to measure the absorbance at 540 nm, thereby analyzing the cell viability. Herein, the cell viability was represented as a relative value with respect to 100% of cell viability in a control group not treated with pachastrissamine and phytosphingosine."}}, "note": "Entries after “also recorded” stand apart in the source; their conditions may differ.", "data": [{"smiles": "CCCCCCCCCCCCCC[C@@H]1OC[C@H](N)[C@@H]1O", "note": "[pachastrissamine]", "values": [{"measurement": "MEK activity (upper signal of ERK)", "setting": "MEK", "value": "inhibition effect on MEK"}, {"measurement": "ERK activation (phosphorylation of ERK)", "setting": "ERK", "value": "almost completely inhibited the phosphorylation of ERK; also recorded: reduction of ERK activation"}, {"measurement": "apoptosis (TUNEL positive) among observed cell nuclei (DAPI stained)", "setting": "HaCaT cell line [1]", "value": "most of observed cell nuclei showed apoptosis"}, {"measurement": "movement of FoxO3a protein to a nucleus", "setting": "FoxO3a; 10 μg/ml, 24 hours, FIG. 4D", "value": "significantly increased"}, {"measurement": "distribution of intracellular FoxO3a protein in cells with over-expression of beta-catenin", "setting": "FoxO3a; HaCaT with over-expression of beta-catenin (FoxO3a mostly in cytosol before treatment), FIG. 5D", "value": "moved into the nucleus again"}, {"measurement": "cell viability (number of surviving cells) with increasing concentration", "setting": "HaCaT cell line [2]; 0, 0.9, 1.8, 3.7, 7.5, 10 μg/ml", "value": "the number of surviving cells was reduced"}, {"measurement": "cytotoxicity compared with phytosphingosine", "setting": "HaCaT cell line [2]", "value": "lower cytotoxicity than phytosphingosine"}]}]}
